Experiments:
[1] = Cytotoxicity assay, proliferation of exponentially growing MDBK cells (MTS/PMS); type: cell-based, bovine; settings: bovine
Protocol: Assays were carried out, as described previously.

[2] = system: BVDV NADL virus; assay: CPE-based antiviral assay, BVDV NADL in MDBK cells (MTS/PMS); settings: for EC50: Bovine viral diarrhea virus isolates and strains, MDBK, 72 h; for S.I.: selectivity index, CC50 vs EC50
[3] = sheet CSFCI#, potency relative to TO505-6180 (EC50 0.07 µM)
[4] = sheet CSFCII#, potency relative to TO502-2403 (EC50 0.2 µM)

Row | Structure (SMILES) | CC50 at 5 days [1] [µM] | EC50 [2] [µM] | S.I. [2] | fold increase [2, 3] | fold increase [2, 4]
1 | O=C(Nc1nc2ccc(Cl)cc2s1)c1cc(-c2ccccc2)nc2ccccc12 [CSFC-10, Clc1ccc2nc(NC(=O)c3cc(nc4ccccc43)c3ccccc3)sc2c1] | > 100 | 0.5 | 200 | 0.14 | –
2 | O=C(Nc1ccn(-c2ccccc2)n1)c1cc(-c2ccccc2Cl)nc2ccccc12 [CSFC-111, Clc1ccccc1c3nc2ccccc2c(c3)C(=O)Nc4ccn(n4)c5ccccc5] | > 100 | 0.4 | 250 | – | 0.50
3 | O=C(Nc1ccn(-c2ccccc2)n1)c1cc(-c2ccncc2)nc2ccccc12 [CSFC-121, O=C(Nc1ccn(n1)c1ccccc1)c1cc(nc2ccccc21)c1ccncc1] | > 100 | 100 | 1 | – | 0.002
4 | Cc1cc(NC(=O)c2cc(-c3ccccc3)nc3ccccc23)on1 [CSFC-41, O=C(Nc1cc(C)no1)c3cc(nc2ccccc23)c4ccccc4] | > 100 | 34.6 | 3 | – | 0.00578
5 | Cc1ccc2nc(NC(=O)c3cc(O)nc4ccccc34)sc2c1 [CSFC-31, Oc1nc2ccccc2c(c1)C(=O)Nc1nc2ccc(C)cc2s1] | > 100 | > 100 | 1 | 0.0007 | –
6 | Cc1cccc2sc(NC(=O)c3cc(-c4ccco4)nc4ccc(F)cc34)nc12 [CSFC-71, Fc1cc2c(cc1)nc(cc2C(=O)Nc3nc4c(C)cccc4s3)c5ccco5] | > 100 | 0.1 | 1000 | – | 2.00
7 | COc1ccc2nc(NC(=O)c3cc(-c4ccco4)nc4ccccc34)sc2c1 [CSFC-38, COc1ccc2nc(NC(=O)c3cc(nc4ccccc43)c3ccco3)sc2c1] | > 100 | 0.09 | 1111 | 0.78 | –
8 | O=C(Nc1ccccc1O)c1cc(-c2ccccc2)nc2ccccc12 [CSFC-137, Oc1ccccc1NC(=O)c1cc(nc2ccccc12)c1ccccc1] | > 100 | > 100 | 1 | 0.0007 | –
9 | O=C(Nc1ccn(-c2ccccc2)n1)c1cc(-c2ccccn2)nc2ccccc12 [CSFC-96, O=C(c2cc(nc1ccccc12)c3ccccn3)Nc4ccn(n4)c5ccccc5] | > 100 | 0.2 | 500 | – | 1.00
10 | Cn1c(NC(=O)c2cc(-c3ccccc3)nc3ccccc23)nc2ccccc21 [CSFC-4, O=C(Nc1nc2ccccc2n1C)c1cc(nc2ccccc21)c1ccccc1] | > 100 | > 100 | 1 | 0.0007 | –
11 | O=C(Nc1nc2ccccc2[nH]1)c1cc(-c2ccccc2)nc2ccccc12 [CSFC-3, O=C(Nc1nc2ccccc2[NH]1)c1cc(nc2ccccc21)c1ccccc1] | > 100 | > 100 | 1 | 0.0007 | –
12 | Cc1cccc2sc(NC(=O)c3cc(-c4ccccc4Cl)nc4ccccc34)nc12 [CSFC-113, Clc1ccccc1c3nc2ccccc2c(c3)C(=O)Nc4nc5c(C)cccc5s4] | > 100 | 0.4 | 250 | – | 0.50
13 | O=C(Nc1nc2cc(Cl)ccc2o1)c1cc(-c2ccccc2)nc2ccccc12 [CSFC-5, Clc1cc2nc(NC(=O)c3cc(nc4ccccc43)c3ccccc3)oc2cc1] | > 100 | > 100 | 1 | 0.0007 | –
14 | Cc1ccc2nc(NC(=O)c3nccn3C)sc2c1 [CSFC-33, Cn1ccnc1C(=O)Nc1nc2ccc(C)cc2s1] | > 100 | 46 | 2 | 0.00152 | –
15 | O=C(Nc1ccn(-c2ccccc2)n1)c1cc(-c2ccc(Cl)s2)nc2ccccc12 [CSFC-53, Clc1ccc(s1)c3nc2ccccc2c(c3)C(=O)Nc4ccn(n4)c5ccccc5] | > 100 | 77.5 | 1 | – | 0.00258
16 | Cc1cccc2sc(NC(=O)c3cc(-c4cc(Cl)sc4Cl)nc4ccccc34)nc12 [CSFC-85, Clc1cc(c(Cl)s1)c3nc2ccccc2c(c3)C(=O)Nc4nc5c(C)cccc5s4] | > 100 | 0.3 | 333 | – | 0.67
17 | O=C(Nc1ccn(-c2ccccc2)n1)c1cc(-c2cccnc2)nc2ccccc12 [CSFC-99, O=C(Nc1ccn(n1)c1ccccc1)c1cc(nc2ccccc21)c1cccnc1] | 72 | 53.6 | 1 | – | 0.00373
18 | Cc1ccc2nc(NC(=O)c3ncc[nH]3)sc2c1 [CSFC-30, Cc1ccc2nc(NC(=O)c3ncc[NH]3)sc2c1] | > 100 | > 100 | 1 | 0.0007 | –
19 | O=C(Nc1ccn(-c2ccccc2)n1)c1cc(-c2cccs2)nc2ccc(Br)cc12 [CSFC-122, O=C(Nc1ccn(n1)c2ccccc2)c4cc(nc3ccc(Br)cc34)c5cccs5] | > 100 | 0.6 | 167 | – | 0.33
20 | O=C(Nc1cc(-c2ccc(Br)cc2)on1)c1cc(-c2ccccc2)nc2ccccc12 [CSFC-43, O=C(Nc1cc(on1)c2ccc(Br)cc2)c4cc(nc3ccccc34)c5ccccc5] | > 100 | 4 | 26 | – | 0.05
21 | O=C(Nc1ccn(-c2cccc(Cl)c2)n1)c1cc(-c2ccccc2)nc2ccccc12 [CSFC-132, Clc1cccc(c1)n2ccc(n2)NC(=O)c4cc(nc3ccccc34)c5ccccc5] | > 100 | 0.02 | – | – | 10.00
22 | Cc1cccc(-n2ccc(NC(=O)c3cc(-c4ccccc4)nc4ccccc34)n2)c1 [CSFC-133, Cc1cccc(c1)n2ccc(n2)NC(=O)c4cc(nc3ccccc34)c5ccccc5] | > 100 | 0.02 | – | – | 10.00
23 | O=C(Nc1ccn(-c2ccccc2)n1)c1cc(-c2ccccc2F)nc2ccccc12 [CSFC-76, Fc1ccccc1c3nc2ccccc2c(c3)C(=O)Nc4ccn(n4)c5ccccc5] | > 100 | 0.1 | 1000 | – | 2.00
24 | COc1ccc(-c2cc(C(=O)Nc3nc4c(C)cccc4s3)c3ccccc3n2)cc1 [CSFC-117, COc1ccc(cc1)c3nc2ccccc2c(c3)C(=O)Nc4nc5c(C)cccc5s4] | > 100 | 1.7 | 59 | – | 0.12
25 | O=C(Nc1nc2c(F)cc(Br)cc2s1)c1cc(-c2ccccc2)nc2ccccc12 [CSFC-147, Fc1cc(Br)cc2sc(nc12)NC(=O)c1cc(nc2ccccc21)c1ccccc1] | 6.2 ± 1.1 | 0.01 | – | 7.00 | –
26 | O=C(Nc1ccn(-c2ccccc2)n1)c1cc(-c2cccc(F)c2)nc2ccccc12 [CSFC-69, Fc1cccc(c1)c3nc2ccccc2c(c3)C(=O)Nc4ccn(n4)c5ccccc5] | > 100 | 0.1 | 1000 | – | 2.00
27 | COc1ccc2nc(NC(=O)c3cc(-c4cc(C)oc4C)nc4ccccc34)sc2c1 [CSFC-86, O=C(c2cc(nc1ccccc12)c3cc(oc3C)C)Nc4nc5ccc(cc5s4)OC] | > 100 | 0.3 | 333 | – | 0.67

Reference: article PMC7144022, “Quinolinecarboxamides Inhibit the Replication of the Bovine Viral Diarrhea Virus by Targeting a Hot Spot for the Inhibition of Pestivirus Replication in the RNA-Dependent RNA Polymerase” (Molecules, 2020)
